Reference: publication PMC5510229, “BCAT1 controls metabolic reprogramming in activated human macrophages and is associated with inflammatory diseases” (Nature Communications, 2017)

Tests used:
[1] = system: nephrotoxic nephritis (NTN) model; test: Nephrotoxic nephritis (NTN, crescentic glomerulonephritis) in the WKY rat; assay type: in vivo, Wistar-Kyoto (WKY) rat
Source text: Figure 5 Orally administrated ERG240 reduced the severity of crescentic glomerulonephritis in rats and CIA in mice. (a) Glomerular crescents, serum creatinine, and proteinuria levels measured in vehicle and ERG240 treated rats at day 10 following induction of nephrotoxic nephritis. At least n=4 rats were used in each group. (b) Col1a1 immunofluorescence (IF) quantification (left panel), representative IF and Sirius red staining images (middle panel) and Col1a1 qRT-PCR (normalized to Hprt) 28 days following NTS injection. Original magnification, × 20, at least n=4 animals were used in each group. (c) Clinical progression of CIA measured by the Mean Arthritis Index in vehicle and ERG240-treated animals in both studies (prophylactic and therapeutic, upper panel; at least n=6 animals per group). Histological analysis of joints from representative whole paws scored for inflammation, pannus formation, cartilage damage and bone resorption (lower panel). Error bars are s.e.m. Either Mann–Whitney or Student’s t-test were used for significance. *** P<0.001, ** P<0.01, * P<0.05. Scale bars, 50 μm.
Nephrotoxic nephritis (NTN) was induced in twelve week old male Wistar-Kyoto (WKY) rats by intravenous injection of 0.1 ml of nephrotoxic serum (NTS), as previously described. Five WKY rats received ERG240 (250 mg kg^−1) orally in 0.1% carboxymethylcellulose once a day for a duration of 10 days whereas the vehicle treated WKY rats had carboxymethylcellulose only for the same period. Nine days following NTS injection, urine was collected by placing rats in metabolic cages for 24 h with free access to food and water. Proteinuria was determined by the sulphosalicylic acid test and serum creatinine by the Creatinine Assay Kit (Abcam). After 10 or 28 days of NTN induction, rats were culled and the kidney was formalin fixed and paraffin embedded for immunohistochemistry. To quantify the number of macrophages infiltrating the glomeruli, formalin-fixed paraffin-embedded kidney sections were stained with mouse monoclonal antibody to ED-1 (Serotec, Oxford, UK), followed by an HRP-labelled anti-mouse polymer development system (Dako Ltd, UK). For the evaluation of total collagen, renal tissues were stained with Sirius red. For Col1a1 immunofluorescence, sections were blocked with BSA, incubated with the Col1a1 primary antibody raised in goat (Southern Biotech, 1/40 dilution), washed and re-incubated with secondary antibody (donkey anti-goat-FITC, 1/100 dilution, Abcam). For ED-1 staining, the cellular infiltrates in 20 consecutive glomeruli were quantified using an automated image analysis software (ImagePro Plus, Media Cybernetics, Bethesda, MD) and expressed as a percentage of total glomerular cross sectional area.

[2] = Uptake and metabolism of ERG240 in human macrophage lysates by GC/MS; assay type: in vitro ADME
Source text: NCOMMS-16-23550_Point by Point Responses Papathanassiu et al.
Add additional explanation for “extracellular space” findings because this is unclear.
Authors’ reply. ‘Extracellular space’ has now been replaced by ‘extracellular matrix genes’ in the revised manuscript (Figure 3 in the submitted manuscript which is now Figure 4 in the revised one). We have also added a Volcano plot showing the differentially expressed genes (Figure 4E in the revised manuscript).
Authors fail to cite and discuss this paper found in quick google search “ Nemeth, B.; Doczi, J.; Csete, D.; Kacso, G.; Ravasz, D.; Adams, D.; Kiss, G.; Nagy, A. M.; Horvath, G.; Tretter, L.; Mocsai, A.; Csepanyi-Komi, R.; Iordanov, I.; Adam-Vizi, V.; Chinopoulos, C. (2015).
“Abolition of mitochondrial substrate-level phosphorylation by itaconic acid produced by LPS-induced Irg1 expression in cells of murine macrophage lineage”. The FASEB Journal.
Authors’ reply. This paper is now cited and discussed by adding this following paragraph to the discussion (highlighted text).
Besides its antimicrobial effects, itaconate has been proposed as an inhibitor of substrate level phosphorylation (SLP) through its effect on succinate-CoA ligase in RAW-264.7 cells1.
Statistical analysis (or indications in figures) is lacking in Fig 1C. Fig 4C.
Authors’ reply. Statistical analyses are added for Fig 1C and 4C. Please note that Figure
4C is now Figure 5C in the revised manuscript. (See also highlighted text in figure legends).
Dosing in vitro should be discussed further- 20mM in vitro is a high dose if IC50 is in nM […]
Authors’ reply. ERG240 is a structural analogue of leucine, designed based on the X-ray crystal structure of BCAT1 and, as the reviewer correctly states, it can inhibit BCAT1 within 0.1-1nM range of IC50. The concentration of 20 mM used in the cellular assays is because […]
possible competition with leucine, which is in mM concentration (0.381 mM) in the RPMI media used throughout the study. […]
A cartoon of metabolites regulated would aid the reader. […]
ERG240 can easily be detected […]

[3] = 250 mg kg^−1 orally once a day, 10 days, day 10

CC(=O)C(C)CCC(=O)O (centres unmarked) [ERG240]
glomerular crescent formation [1, 3]: significantly reduced
proteinuria [1, 3]: significantly reduced
serum creatinine [1, 3]: significantly reduced
interstitial fibrosis ([1]; NTN model): reduced interstitial fibrosis
Col1a1 mRNA levels in the renal cortex ([1]; day 28): reduced
Sirius red staining ([1]; day 28): reduced Sirius red staining
collagen type I alpha I quantitative immunofluorescence in nephritic kidneys ([1]; day 28): significant down-regulation
glomerular infiltration of CD68 (ED1)-positive cells ([1]; rat, in vivo): significantly decreased
uptake of the compound by cells ([2]; 1x10^6 cells treated with 3.28 mg ERG240 (20 mM)): 0.8 to 3 ng
estimated intracellular ERG240 concentration ([2]; human macrophages treated with 20 mM): 70 to 260 nM
cellular metabolism of the drug ([2]; lysates of human macrophages, GC/MS): does not undergo any cellular metabolic reaction
